The source made the active and inactive calls.
Legend:
[1] = molecular target: T1, Intestinal-type alkaline phosphatase (Homo sapiens, UniProt P09923); assay: human intestinal alkaline phosphatase activators, dose response, biochemical, luminescence, uHTS hits (AID 463120); format: functional
[2] = molecular target: T2, Alkaline phosphatase, tissue-nonspecific isozyme (Homo sapiens, UniProt P05186); assay: TNAP enzyme activators, dose response, selectivity assay for human IAP activator project, biochemical, TNAP isozyme, human IAP uHTS hits (AID 488886); format: functional;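 note: potency of compounds raising TNAP activity as a selectivity check on IAP activators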
T2 sequence (P05186 whole entry): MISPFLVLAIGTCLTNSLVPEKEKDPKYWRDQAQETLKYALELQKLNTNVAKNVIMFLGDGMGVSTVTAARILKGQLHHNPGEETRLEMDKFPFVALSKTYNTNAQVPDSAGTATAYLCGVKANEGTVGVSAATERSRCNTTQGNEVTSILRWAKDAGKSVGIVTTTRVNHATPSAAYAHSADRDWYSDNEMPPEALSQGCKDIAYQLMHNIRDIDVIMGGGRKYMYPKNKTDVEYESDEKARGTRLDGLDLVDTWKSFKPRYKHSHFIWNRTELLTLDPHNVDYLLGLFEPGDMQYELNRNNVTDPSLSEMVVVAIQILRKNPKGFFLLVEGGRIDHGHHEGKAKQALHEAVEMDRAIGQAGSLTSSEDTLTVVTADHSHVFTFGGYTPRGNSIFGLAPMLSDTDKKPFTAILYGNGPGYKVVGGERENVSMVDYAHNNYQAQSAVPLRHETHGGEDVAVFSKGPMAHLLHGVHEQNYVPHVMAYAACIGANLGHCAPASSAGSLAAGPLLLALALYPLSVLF

[3] = molecular target: T1, Intestinal-type alkaline phosphatase; assay: human IAP activators, dose response, biochemical, luminescent, uHTS hits, set 2 (AID 488817); format: functional;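 note: potency of activators that raise enzyme activity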
[4] = molecular target: Intestinal-type alkaline phosphatase (Mus musculus, UniProt P24822); assay: PubChem AID 488875; format: functional
[5] = molecular target: T3, Ubiquitin-conjugating enzyme E2 N (Homo sapiens, UniProt P61088); format: functional;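 note: Dose-response confirmation in a TR-FRET assay detecting UBC13-driven polyubiquitin chain formation, inhibition measured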
T3 sequence (P61088 whole entry): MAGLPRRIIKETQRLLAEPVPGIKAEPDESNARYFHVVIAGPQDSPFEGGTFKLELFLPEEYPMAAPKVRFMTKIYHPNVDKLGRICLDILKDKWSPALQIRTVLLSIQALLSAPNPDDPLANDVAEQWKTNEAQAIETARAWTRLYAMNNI

[6] = molecular target: T4, G-protein coupled receptor 55 (Homo sapiens, UniProt Q9Y2T6); assay: GPR55 antagonists blocking LPI-driven arrestin recruitment, primary screen, imaging, U2OS, beta-arrestin-GFP, LPI agonist (AID 2013); format: functional;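 note: antagonist potency measured as reduced agonist-driven arrestin aggregation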
[7] = inhibitors of SNCA 5'UTR-driven reporter translation, confirmation, H4 neuroglioma cells, luminescence (AID 1988); format: functional, cell-based
[8] = inhibitors of firefly luciferase expression or activity, dose response, H4 neuroglioma cells, luminescence (AID 1990); format: functional, cell-based
[9] = Luminescence Cell-Based Dose Response HTS to Identify Inhibitors of 5'UTR Stem-Loop Driven Prion Protein mRNA Translation in H4 Neuroglioblastoma Cells. [Related pubchem assays: 1827 (Project Summary), 1813 (Primary HTS)]; format: functional
[10] = molecular target: T5, Apoptotic protease-activating factor 1 (Homo sapiens, UniProt O14727); format: functional
T5 sequence (O14727 whole entry): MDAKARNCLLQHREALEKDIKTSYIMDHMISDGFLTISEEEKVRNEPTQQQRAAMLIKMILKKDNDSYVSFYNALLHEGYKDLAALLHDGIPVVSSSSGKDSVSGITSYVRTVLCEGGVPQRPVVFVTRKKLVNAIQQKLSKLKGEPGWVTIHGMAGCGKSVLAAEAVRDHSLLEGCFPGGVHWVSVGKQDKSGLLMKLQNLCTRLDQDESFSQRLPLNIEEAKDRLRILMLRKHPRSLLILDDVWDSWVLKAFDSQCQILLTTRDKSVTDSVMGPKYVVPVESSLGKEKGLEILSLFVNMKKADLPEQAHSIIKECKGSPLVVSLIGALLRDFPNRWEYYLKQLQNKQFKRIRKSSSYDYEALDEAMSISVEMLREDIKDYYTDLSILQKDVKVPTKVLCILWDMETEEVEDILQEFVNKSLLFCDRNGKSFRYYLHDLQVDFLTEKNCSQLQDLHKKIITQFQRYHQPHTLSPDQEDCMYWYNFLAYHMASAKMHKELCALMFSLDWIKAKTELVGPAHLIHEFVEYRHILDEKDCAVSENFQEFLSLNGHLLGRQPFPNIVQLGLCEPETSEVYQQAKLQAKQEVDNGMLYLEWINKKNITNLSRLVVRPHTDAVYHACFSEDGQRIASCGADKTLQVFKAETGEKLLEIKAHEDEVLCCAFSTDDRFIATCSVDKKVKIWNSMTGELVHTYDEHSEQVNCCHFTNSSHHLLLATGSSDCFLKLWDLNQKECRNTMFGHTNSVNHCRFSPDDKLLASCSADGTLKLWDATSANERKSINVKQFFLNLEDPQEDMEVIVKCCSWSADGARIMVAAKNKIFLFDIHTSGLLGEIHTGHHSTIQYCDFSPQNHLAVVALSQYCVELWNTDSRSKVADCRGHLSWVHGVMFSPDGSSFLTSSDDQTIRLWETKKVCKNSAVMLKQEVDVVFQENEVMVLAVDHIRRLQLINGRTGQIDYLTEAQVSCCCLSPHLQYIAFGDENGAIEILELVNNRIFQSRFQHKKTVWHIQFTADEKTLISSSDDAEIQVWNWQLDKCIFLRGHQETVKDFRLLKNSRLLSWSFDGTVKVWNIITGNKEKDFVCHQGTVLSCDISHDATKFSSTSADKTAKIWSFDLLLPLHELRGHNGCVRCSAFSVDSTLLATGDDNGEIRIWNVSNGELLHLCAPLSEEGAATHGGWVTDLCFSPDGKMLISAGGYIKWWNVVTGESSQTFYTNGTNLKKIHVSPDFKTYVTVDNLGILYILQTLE

[11] = molecular target: T6, RNA-binding protein pos-1 (Caenorhabditis elegans, UniProt G5EF15); assay: inhibitors of POS-1/mex-3 RNA binding, dose response, biochemical, fluorescence polarization (AID 1964);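 note: purified POS-1 fused to maltose binding protein made in E. coli; potency of compounds blocking POS-1 binding to fluorescent RNA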
T6 sequence (G5EF15 whole entry): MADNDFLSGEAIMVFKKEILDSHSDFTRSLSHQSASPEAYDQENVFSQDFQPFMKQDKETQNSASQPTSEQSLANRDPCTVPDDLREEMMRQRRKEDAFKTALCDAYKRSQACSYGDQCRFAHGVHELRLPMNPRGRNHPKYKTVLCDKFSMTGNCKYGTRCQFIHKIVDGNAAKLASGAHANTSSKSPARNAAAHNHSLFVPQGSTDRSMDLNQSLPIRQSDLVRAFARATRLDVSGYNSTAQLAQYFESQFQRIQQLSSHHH

[12] = molecular target: T4, G-protein coupled receptor 55; assay: GPR55 agonists via beta-arrestin recruitment, primary screen, imaging, U2OS cells, beta-arrestin-GFP redistribution (AID 1961); format: functional
[13] = molecular target: T7, Endoribonuclease toxin MazF (Escherichia coli K-12, UniProt P0AE70); assay: fluorescent RNA oligo signal without MazF, dose response, counter-screen for MazEF activator project, biochemical, fluorescence, single-stranded RNase substrate (AID 588502); format: functional
T7 sequence (P0AE70 whole entry): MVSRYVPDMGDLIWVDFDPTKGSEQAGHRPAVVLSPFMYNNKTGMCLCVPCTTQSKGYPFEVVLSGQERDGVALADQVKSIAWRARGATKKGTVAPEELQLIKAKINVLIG

[14] = molecular target: Neurotensin receptor type 1 (Homo sapiens, UniProt P30989); format: functional;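 note: Image-based confirmatory dose-response assay measuring agonist activity at NTR1; NTR1-expressing U2OS osteosarcoma cells imaged for beta-arrestin GFP spot formation; agonist potency where compounds increase beta-arrestin recruitment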
[15] = molecular target: T7, Endoribonuclease toxin MazF; assay: MazF toxin RNase activators, dose response, biochemical, fluorescence, single-stranded RNA substrate, uHTS hits (AID 588481); format: functional
[16] = molecular target: T8, Zinc finger protein mex-5 (Caenorhabditis elegans, UniProt Q9XUB2); assay: MEX-5/TCR-2 RNA interaction inhibitors, dose response, biochemical, C. elegans, fluorescence polarization (AID 1960)
T8 sequence (Q9XUB2 whole entry): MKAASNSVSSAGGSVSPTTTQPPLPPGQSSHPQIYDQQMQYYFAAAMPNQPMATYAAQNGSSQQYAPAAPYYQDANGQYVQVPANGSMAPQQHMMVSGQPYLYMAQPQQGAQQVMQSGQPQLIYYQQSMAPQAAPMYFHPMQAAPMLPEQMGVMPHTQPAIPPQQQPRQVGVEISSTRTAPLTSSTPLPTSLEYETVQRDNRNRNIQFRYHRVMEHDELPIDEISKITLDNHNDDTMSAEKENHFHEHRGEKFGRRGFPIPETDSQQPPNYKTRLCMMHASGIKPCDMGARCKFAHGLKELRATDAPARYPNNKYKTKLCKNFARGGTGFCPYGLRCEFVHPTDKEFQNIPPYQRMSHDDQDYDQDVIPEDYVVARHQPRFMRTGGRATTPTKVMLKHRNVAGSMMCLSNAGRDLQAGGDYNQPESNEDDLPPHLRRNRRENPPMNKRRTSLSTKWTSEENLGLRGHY

T1 sequence (P09923 whole entry): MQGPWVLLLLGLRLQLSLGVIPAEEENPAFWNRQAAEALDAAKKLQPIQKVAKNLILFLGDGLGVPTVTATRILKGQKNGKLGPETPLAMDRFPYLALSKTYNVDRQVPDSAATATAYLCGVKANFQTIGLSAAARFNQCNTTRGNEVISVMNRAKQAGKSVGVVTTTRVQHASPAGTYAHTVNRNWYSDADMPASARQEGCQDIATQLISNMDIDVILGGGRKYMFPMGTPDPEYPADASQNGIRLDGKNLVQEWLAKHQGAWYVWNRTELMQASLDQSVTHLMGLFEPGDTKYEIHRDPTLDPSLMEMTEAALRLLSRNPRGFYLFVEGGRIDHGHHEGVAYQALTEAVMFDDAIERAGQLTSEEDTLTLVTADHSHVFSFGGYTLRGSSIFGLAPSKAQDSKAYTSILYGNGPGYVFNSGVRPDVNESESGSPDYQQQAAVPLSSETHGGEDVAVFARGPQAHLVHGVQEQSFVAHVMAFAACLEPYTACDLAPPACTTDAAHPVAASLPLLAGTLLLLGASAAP
T4 sequence (Q9Y2T6 whole entry): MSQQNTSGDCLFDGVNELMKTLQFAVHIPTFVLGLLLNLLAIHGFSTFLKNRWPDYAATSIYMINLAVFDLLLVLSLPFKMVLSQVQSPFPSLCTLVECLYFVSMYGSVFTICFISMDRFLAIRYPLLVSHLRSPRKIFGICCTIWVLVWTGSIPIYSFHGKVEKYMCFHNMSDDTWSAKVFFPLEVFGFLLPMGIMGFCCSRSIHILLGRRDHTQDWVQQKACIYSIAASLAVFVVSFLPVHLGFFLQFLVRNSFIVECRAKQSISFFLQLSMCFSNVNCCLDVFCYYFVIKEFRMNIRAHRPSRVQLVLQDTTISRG
Sequence of Intestinal-type alkaline phosphatase (Mus musculus, UniProt P24822) (P24822 whole entry): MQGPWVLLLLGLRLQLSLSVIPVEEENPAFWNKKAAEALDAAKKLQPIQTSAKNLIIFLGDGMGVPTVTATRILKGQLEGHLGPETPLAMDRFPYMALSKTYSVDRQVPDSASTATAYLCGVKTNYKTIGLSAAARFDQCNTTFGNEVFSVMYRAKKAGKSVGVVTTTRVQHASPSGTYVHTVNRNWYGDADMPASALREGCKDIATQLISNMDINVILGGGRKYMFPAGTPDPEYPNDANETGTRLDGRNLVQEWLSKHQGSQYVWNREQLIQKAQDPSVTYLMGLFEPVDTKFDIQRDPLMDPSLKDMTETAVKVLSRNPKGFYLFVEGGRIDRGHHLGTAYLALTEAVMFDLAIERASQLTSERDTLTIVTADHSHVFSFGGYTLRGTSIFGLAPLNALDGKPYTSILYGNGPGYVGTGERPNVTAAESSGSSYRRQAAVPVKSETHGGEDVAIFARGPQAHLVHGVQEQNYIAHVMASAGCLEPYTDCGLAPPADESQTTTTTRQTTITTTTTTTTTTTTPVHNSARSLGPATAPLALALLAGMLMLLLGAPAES
Sequence of Neurotensin receptor type 1 (P30989 whole entry): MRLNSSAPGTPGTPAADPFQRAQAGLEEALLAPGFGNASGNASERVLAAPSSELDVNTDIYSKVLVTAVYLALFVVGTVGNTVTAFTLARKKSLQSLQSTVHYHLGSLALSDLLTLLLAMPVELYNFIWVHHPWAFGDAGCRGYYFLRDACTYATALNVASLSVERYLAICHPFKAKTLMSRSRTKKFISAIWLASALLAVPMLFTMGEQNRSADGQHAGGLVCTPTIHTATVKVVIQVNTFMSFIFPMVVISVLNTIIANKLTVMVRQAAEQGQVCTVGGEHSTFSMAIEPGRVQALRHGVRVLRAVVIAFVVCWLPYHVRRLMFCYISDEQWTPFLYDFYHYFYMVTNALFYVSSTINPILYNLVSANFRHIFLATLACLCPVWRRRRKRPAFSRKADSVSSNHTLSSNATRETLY

COc1cc(CN2CCC(n3nccc3NC(=O)CCCc3ccccc3)CC2)ccc1F
EC50 [1]: 68.7 µM (active)
EC50 [2]: 66.1 µM (active)
EC50 [3]: 79.7 µM (active)
EC50 [4]: 58.2 µM (active)

CN1Cc2c(N3CCOCC3)nc3sc(C(=O)c4ccc(Br)cc4)c(N)c3c2CC1(C)C
IC50 [5]: > 20 µM (inactive)
IC50 [6]: 3.9 µM (active)
EC50 [7]: 8.58 µM (active)
EC50 [8]: 10.4 µM (active)
EC50 [9]: 11.6 µM (active)
IC50 [10]: 15.8 µM (active)

COc1cc2c3nnc(-c4ccccc4)c-3cn(Cc3ccccc3F)c2cc1OC
EC50 [11]: > 300 µM (not active)
EC50 [12]: 0.807 µM (active)
EC50 [13]: 34.6 µM (inactive)
EC50 [14]: 5.8 µM (active)
EC50 [15]: > 99 µM (inactive)
EC50 [16]: > 300 µM (inconclusive)
